According to US20240174608A1, “COMPOUNDS FOR BRAIN IMAGING” (The General Hospital Corporation, priority 2021, published 2024):

How the values were obtained:
[1] = tested on: NAD glycohydrolase (NADase); conditions: at 100 μM; cited from earlier work
[2] = tested on: histone deacetylases (HDACs); conditions: at 100 μM; cited from earlier work
SIRT1 [3] = molecular target: T1, SIRT1 (Mus musculus, UniProt Q923E4); experiment: Rodent PET/CT blocking studies (in vivo specificity); design: from tissue; host or cells: brain and other organs of living C57BL/6 mice; species or system C57BL/6 mice; conditions: for specific binding in brain: at 60 min
T1 sequence (Q923E4 1-737): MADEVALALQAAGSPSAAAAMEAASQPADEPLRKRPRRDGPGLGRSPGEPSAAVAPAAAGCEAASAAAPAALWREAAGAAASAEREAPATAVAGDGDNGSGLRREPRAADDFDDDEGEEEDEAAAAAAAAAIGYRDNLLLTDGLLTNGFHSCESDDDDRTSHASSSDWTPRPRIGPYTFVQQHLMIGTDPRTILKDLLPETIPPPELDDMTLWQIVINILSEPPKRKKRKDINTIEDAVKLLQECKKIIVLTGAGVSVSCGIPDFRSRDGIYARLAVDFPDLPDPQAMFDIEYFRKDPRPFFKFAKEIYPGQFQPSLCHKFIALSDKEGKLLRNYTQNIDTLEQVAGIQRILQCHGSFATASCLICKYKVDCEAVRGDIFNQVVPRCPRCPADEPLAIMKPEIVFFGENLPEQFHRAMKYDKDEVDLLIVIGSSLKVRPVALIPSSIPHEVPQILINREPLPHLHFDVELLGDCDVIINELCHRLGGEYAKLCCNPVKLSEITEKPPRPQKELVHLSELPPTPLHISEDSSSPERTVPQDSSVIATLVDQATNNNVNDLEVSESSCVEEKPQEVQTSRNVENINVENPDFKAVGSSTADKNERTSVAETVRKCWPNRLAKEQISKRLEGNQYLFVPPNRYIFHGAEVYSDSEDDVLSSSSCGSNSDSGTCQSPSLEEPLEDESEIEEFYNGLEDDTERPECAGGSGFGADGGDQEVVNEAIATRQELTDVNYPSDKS
From the text: (§1) C57BL/6 mice were used for baseline and blocking studies (25-30 g, male; n=6 for baseline, n=5 for blocking with the pre-treatment of compound 8, and n=6 for blocking with the pre-treatment of Ex-527), and B6SJL wild-type and 5×FAD transgenic mice (20-25 g, male; n=4 for wild-type mice and n=4 for 5×FAD transgenic mice) were included to evaluate the [^11C]8 in a model of AD. All animals were anesthetized with inhalational isoflurane at 3% in a carrier of 2 L/min medical oxygen, and maintained at 2% isoflurane for the duration of the scan. The mice were fixed on the bed of a Triumph Trimodality PET/CT scanner (Gamma Medica, Northridge, CA) in the prone position, and injected with [^11C]8 (150-200 μL, ˜200 μCi) via a lateral tail vein catheterization at the start of PET acquisition. For blocking studies, compound 8 (5 mg/kg, iv) or Ex-527 (5 mg/kg, iv) was injected at 10 min prior to [^11C]8 injection. Dynamic PET acquisition lasted for 60 min and was followed by CT for anatomic coregistration. PET data were reconstructed using a 3D-MLEM method resulting in a full width at half-maximum resolution of 1 mm. Reconstructed images were exported from the scanner in DICOM format along with an anatomic CT. […] Volumes of interests, including the whole brain, striatum, cortex, thalamus, midbrain, cerebellum and brain stem were placed referencing the MRI template software. […] The time-activity curves were expressed as the percentage of injected dose per gram (% ID/g).

SIRT1 [4] = experiment: NHP PET/MR brain imaging; conditions: baboon
Description: (§2) Atropine 0.05 mg/kg was used intramuscularly to prevent excessive secretion (15 or 30 min of ketamine and xylazine). Anesthesia was induced with intramuscular xylazine (0.5-2.0 mg/kg) and ketamine (10 mg/kg). […] PET/MR images were acquired in a Biograph mMR scanner (Siemens Healthcare, Erlangen, Germany), and PET compatible 8-channel coil arrays for NHP brain imaging with a PET resolution of ˜5 mm at isocenter. Dynamic PET image acquisition was initiated followed by administration of [^11C]8 in a homogeneous solution of 10% ethanol and 90% isotonic saline. A high-resolution structural MRI using [sequence] sequence was acquired about 30 min post-radiotracer administration for anatomical co-registration. Dynamic PET data were acquired and stored in list mode. After corrected for attenuation, scatter, and decay, the PET images were reconstructed using a 3D-OSEM method. […] Volumes of interests were placed referencing the MRI template. Time-activity curves were exported in terms of decay corrected activity at specified time points with gradually increasing intervals. The time-activity curves were expressed as SUV.

[5] = NHP arterial plasma analysis; conditions: baboon
Description: as §2

SIRT1 [6] = molecular target: T1, SIRT1; experiment: PET/CT imaging in 5×FAD transgenic mice (AD model); type: in vivo; design: from tissue; host or cells: brain of living 5×FAD transgenic mice; conditions: at 3 min
From the text: C57BL/6 mice were used for baseline and blocking studies (25-30 g, male; n=6 for baseline, n=5 for blocking with the pre-treatment of compound 8, and n=6 for blocking with the pre-treatment of Ex-527), and B6SJL wild-type and 5×FAD transgenic mice (20-25 g, male; n=4 for wild-type mice and n=4 for 5×FAD transgenic mice) were included to evaluate the [^11C]8 in a model of AD. All animals were anesthetized with inhalational isoflurane at 3% in a carrier of 2 L/min medical oxygen, and maintained at 2% isoflurane for the duration of the scan. The mice were fixed on the bed of a Triumph Trimodality PET/CT scanner (Gamma Medica, Northridge, CA) in the prone position, and injected with [^11C]8 (150-200 μL, ˜200 μCi) via a lateral tail vein catheterization at the start of PET acquisition. For blocking studies, compound 8 (5 mg/kg, iv) or Ex-527 (5 mg/kg, iv) was injected at 10 min prior to [^11C]8 injection. Dynamic PET acquisition lasted for 60 min and was followed by CT for anatomic coregistration. PET data were reconstructed using a 3D-MLEM method resulting in a full width at half-maximum resolution of 1 mm. Reconstructed images were exported from the scanner in DICOM format along with an anatomic CT. […] The time-activity curves were expressed as the percentage of injected dose per gram (% ID/g).

SIRT1 [7] = molecular target: T1, SIRT1; experiment: Rodent PET/CT baseline imaging and whole body biodistribution; type: in vivo; design: from tissue; host or cells: brain and other organs of living C57BL/6 mice; conditions: C57BL/6 mice
From the text: as §1

[8] = baseline whole body biodistribution

Compound	inhibitory effect on NAD glycohydrolase (NADase) [1]	inhibitory effect on class VII histone deacetylases (HDACs) [2]	brain uptake plateau (SIRT1 [3]; at 5 min, pre-treatment with compound 8 (5 mg/kg, iv)) [% ID/g]	specific binding in brain (SIRT1 [3]; blocking by pre-treatment with Ex-527 (5 mg/kg, iv) 10 min prior) [%]	specific binding in brain (SIRT1 [3]; self-blocking, pre-treatment with compound 8 (5 mg/kg, iv) 10 min prior) [%]	specific binding in blood, heart and lung (SIRT1 [3]; both blocking experiments)	specific binding in liver and kidney (SIRT1 [3]; both blocking experiments)	uptake in midbrain (SIRT1 [4]) [SUV]	uptake in thalamus (SIRT1 [4]) [SUV]	peak whole brain uptake (SIRT1 [4]; intravenous)	time to peak concentration in whole brain (SIRT1 [4]; intravenous)	arterial plasma radioactivity remaining (of the total radioactivity) ([5]; after 10 min)	parent compound in plasma (stability in plasma over time) ([5]; at 30 min)	brain uptake plateau (SIRT1 [6]) [% ID/g]	radioactivity in liver and kidney (SIRT1 [7]; [8]) [% ID/g]	uptake in blood (SIRT1 [7]; [8])	BBB penetration (SIRT1 [7]; baseline)	time to reach plateau of brain time course (SIRT1 [7]; baseline)	maximum radioactivity accumulation in the whole brain (SIRT1 [7]; baseline, iv tail vein) [% ID/g]	washout ratio % ID/g 5 min / % ID/g 60 min (SIRT1 [7]; baseline, brain)
NC(=O)C1CCCc2c1[nH]c1ccc(Cl)cc21 (centres unmarked) [Ex-527]	no inhibitory effect	no inhibitory effect																		
[11CH3]c1ccc2[nH]c3c(c2c1)CCCC3C(N)=O (centres unmarked) [[^11C]8, 6-[^11C]methyl-2,3,4,9-tetrahydro-1H-carbazole-1-carboxamide]			6.0	62	68	abundant specific binding	No specific binding	4.1	3.6	greater than 2.9 SUV	approximately 4 min	less than 10%	more than 30%	6.3	> 10	relatively low uptake	penetrated the BBB	around 5 min	7.5	1.01
